Where two headings read alike, the source gives them in different places.
Molecular target: T1, CviR (LuxR homologue) (Chromobacterium violaceum, UniProt D3W065)
T1 construct: CviR ORF in pET28a, SUMO + His-tag fusion, E. coli BL21 (DE3), Ni-Sepharose, eluted by ULP proteinase digestion; RED-NHS labelled
Test: microscale thermophoresis (RED-NHS labelled CviR)
Format: binding

[1] = 50 mM Tris-HCl, 150 mM NaCl, 10 mM MgCl2, 0.05% Tween-20, labelled protein, stated 20 μM CviR

T1 sequence (D3W065 1-265): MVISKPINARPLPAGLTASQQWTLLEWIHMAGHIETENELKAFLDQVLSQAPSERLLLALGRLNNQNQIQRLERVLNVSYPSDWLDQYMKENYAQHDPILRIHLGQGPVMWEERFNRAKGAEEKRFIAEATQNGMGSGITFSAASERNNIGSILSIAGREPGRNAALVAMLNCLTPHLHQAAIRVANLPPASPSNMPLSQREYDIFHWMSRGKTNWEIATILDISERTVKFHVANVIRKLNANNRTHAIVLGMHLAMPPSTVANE

SMILES | Kd [1] | Kd
O=C(/C=C/c1ccc(O)c(O)c1)c1ccc(O)cc1O [BN1, Butein] | MST results suggested that all the QSIs except C7X have significant binding ability | –
CC(C)=CCc1cc2c(cc1O)O[C@H](c1ccc(O)cc1)CC2=O [BN2, Bavachin] | – | 45.1 ± 1.9 nM
Oc1ccc2c(c1)OC[C@](O)(Cc1ccc(O)c(O)c1)[C@H]2O [SPL, Sappanol] | MST results suggested that all the QSIs except C7X have significant binding ability | –
